# Patent publication US20180071317A1, “USE OF AGENTS THAT ALTER THE PERITUMORAL ENVIRONMENT FOR THE TREATMENT OF CANCER” (SERVICIO ANDALUZ DE SALUD, priority 2011, published 2018)
# Columns and labels:
# [1] = test system: fibroblasts (PHF) co-cultured with human melanoma tumor cells (MEL-HO1); assay: Marker expression (IHC) in PHF co-cultured with MEL-HO1 tumor cells; type: cell-based; settings: PHF co-cultured with MEL-HO1 + SP + NK1 antagonist;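 also: values are the percentage of fibroblasts positive for each marker, with cultures grown in fresh healthy-donor blood plasma and each experiment run six times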
# Method: (§1) All cultures were maintained 48 hours, following which the same cells were included in paraffin blocks for subsequent analysis of the expression of different markers by immunohistochemistry (see Example 1). […] All experiments were carried out sixfold. Analyzed markers in fibroblast cells (stromal cells) were: TGF-α, TGF-β1, TGF-β2, TGF-β3, SPARC, MMP-3, MMP-7, MMP-9, MMP-11, MMP-13 and MMP-14.
# [2] = test system: fibroblasts (PHF) co-cultured with tumor cells of human endometrial carcinoma (AN3-CA); assay: Marker expression (IHC) in PHF co-cultured with AN3-CA tumor cells; type: cell-based; settings: co-culture with AN3-CA; SP 1 μM + antagonist 1 μM; 48 h;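 also: cultured in fresh healthy-donor blood plasma with added antibiotic-antimycotic, run in six replicates, values give percent of fibroblasts positive for each marker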
# Method: as §1
# [3] = test system: fibroblasts (PHF) co-cultivated with tumor cell lymphoblastic leukemia B (SDI); assay: Marker expression (IHC) in PHF co-cultured with SDI tumor cells; type: cell-based, human; settings: PHF co-cultivated with SDI + SP + NK1 antagonist
# Method: as §1
# [4] = test system: tumor cells from primary human tumors (MAP Kinase pathway); assay: Proliferation of primary human tumor cells (ERK modified or unchanged) alone or with macrophages; type: cell-based; settings: antagonist 1 μM
# Method: Similarly, cells were obtained inflammation/immunity (macrophages) to cultivate from skin samples obtained from the same patient in the area of surgical incision during the procedure performed to remove their tumor.
# On this occasion, in order to identify the different cell types in order to quantify them, immunohistochemistry was performed with labeling with primary antibodies specific for inflammatory cells/immunity (macrophages) cells (Anti-smooth muscle actin), cells carcinoma (Anti-cytokeratin spectrum) Glioma (Anti-glial fibrillary acidic protein), Ewing's sarcoma (Anti-CD99), Melanoma (Anti-HMB45), leukemias and lymphomas (Anti-leukocyte common antigen) and myeloma (anti-CD138). All antibodies are distributed by Dako and used at the concentration at which they are supplied (supplied pre-diluted—“ready to use”).
# [5] = test system: fibroblasts of tumors produced by tumor cell line of human melanoma (MEL HO); assay: Marker expression (IHC) in fibroblasts of tumor or peritumoral area, mouse model, MEL HO; type: in vivo; settings: MEL HO tumors in mice, 30 mg/kg/day oral, 7 days
# Method: In vitro tests conducted in Example 5 are now carried out in an experimental model in mice in vivo. […] Subsequently, the expression in fibroblasts tumoral and peritumoral area of molecular markers associated with progression and maintenance of tumors: TGF-α, TGF-β1, TGF-β2, TGF-β3, MMP-7, MMP-11, MMP-14 were analyzed by immunohistochemistry.
# Were injected with 2×10^7 cells tumors (corresponding, in each case to each of the tumor types as specified in Table 9) in 200 of PBS subcutaneously μl. […] Mice were randomized into two groups when the tumors reached a volume of 75 mm^3 One group was treated with non-peptide receptor antagonists NK1 and the other with placebo 200μ1. […] Tumors and samples of non-neoplastic stromal areas remote from the tumor were halved, formalin fixed (4%) and then were included in paraffin blocks for analysis by immunohistochemistry.
# The expression on fibroblast cells obtained in the animal model was analyzed by immunohistochemistry, of the above markers: TGF-α, TGF-β1, TGF-β2, TGF-β3, MMP-7, MMP-1 1, MMP-14MP-14. Tables 32 to 35 depict the type of label used and the average percentage of fibroblasts present in non-tumor areas, tumor and peritumoral (±SD) which were expressing the marker shown in each of the tumor types developed from of the different cell lines used. This process was realized in mice treated with non-peptide antagonists of NK1 receptor and in untreated animals (control).
# [6] = test system: primary human tumor cells; assay: Proliferation of primary human tumor cells with low dose Aprepitant alone or with fibroblasts, leukocytes or macrophages; settings: low dose (5 nanomolar)
# [7] = test system: fibroblasts (PHF) co-cultured with human choriocarcinoma tumor cells (AC-1M32); assay: Marker expression (IHC) in PHF co-cultured with AC-1M32 tumor cells; type: cell-based; settings: co-culture with AC-1M32; SP 1 μM + antagonist 1 μM; 48 h;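 also: Read-out is the percentage of PHF fibroblasts positive for each marker, with cells grown in fresh healthy-donor blood plasma, six replicates, reference being fibroblasts cultured alone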
# Method: as §1
# [8] = test system: human primary fibroblasts (PHF); assay: Marker expression (immunohistochemistry) in human primary fibroblasts with SP alone or with NK1 antagonists; type: cell-based; settings: SP 1 μM + antagonist 1 μM; 48 h;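 also: primary human dermal fibroblasts, immunostained with rabbit polyclonal antibodies against each marker, value is percentage of stained cells among all cells counted in 20 fields at 400× per section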
# Method: These PHF were obtained and purified from samples obtained from the dermis of the skin of healthy volunteers as described in De Bari et al (De Bari et al. 2001). Briefly, small pieces of skin dermis were digested in a solution of hyaluronidase (Sigma-Aldrich, USA) at a concentration of 1 mg/ml for 15 minutes at 37° C. and then treated with 6 mg/ml collagenase type IV (Invitrogen) for 2 hours at 37° C. Then, the cells were washed, resuspended in DMEM culture medium with high glucose (Dulbecco's Modified Eagle's Medium, Invitrogen) supplemented with 1% antibiotic-antimycotic (Invitrogen) and 1% pyruvate Sodium (Invitrogen), and seeded in culture dishes at a concentration of 10,000 cells per square centimeter. When the cells reached confluence, adherent cells were detached using 0.5% sterile trypsin (Invitrogen) and used between passages 3 and 9. For tests shown below, the PHF were plated in 24-well plates at a concentration of 25,000 cells per well.
# After 48 hours of culture, cells were harvested and paraffin cell-blocks for immunohistochemical analysis were constructed, as previously explained in Example 1.
# In immunohistochemical assays the expression of the following markers were studied: TGFα (SAB4502953), TGF1 (SAB4502954), TGFβ2 (SAB4502956), TGFβ3 (SAB4502957), SPARC (HPA002989), MMP-3 (HPA007875) MMP-7 (SAB4501894), MMP-9 (SAB4501896), MMP-11 (SAB4501898), MMP-13 (SAB4501900) and MMP-14 (SAB4501901) using specific antibodies against them. All antibodies used were rabbit polyclonal antibodies obtained from Sigma-Aldrich and were used at a concentration of 1/1000. All experiments were carried out sixfold.
# On each of the six sections cell counts were performed in 20 high power fields (400×) through an Olympus microscope (model CX31) to assess the immunostaining. On each of the fields total cell number and number of cells displaying immunostaining were counted, being then the percentage of cells displaying said immunostaining.
# [9] = test system: fibroblasts (PHF) co-cultured with tumor cells, thyroid carcinoma (reference A-427); assay: Marker expression (IHC) in PHF co-cultured with thyroid carcinoma tumor cells; type: cell-based, human; settings: co-culture with thyroid carcinoma cells; SP 1 μM + antagonist 1 μM; 48 h;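 also: grown in fresh plasma from a healthy human donor, read-out is percent of fibroblasts positive for each marker, compared with fibroblasts cultured alone, run in six replicates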
# Method: as §1
# [10] = test system: fibroblasts (PHF) co-cultured with tumor cells, thyroid carcinoma; assay: as above; type: cell-based, human; settings: co-culture with thyroid carcinoma cells; SP 1 μM + antagonist 1 μM; 48 h
# Method: as §1
# mononuclear cells = assay: Marker expression (immunohistochemistry) in mononuclear blood cells with SP alone or with NK1 antagonists; type: cell-based, human; settings: SP 1 μM + antagonist 1 μM; 48 h
# Excerpt: Briefly, heparinized blood from healthy donors was centrifuged so as to separate the various components thereof. Red blood cells remained at the bottom of the tube. Above them was a small white layer composed of the white blood cells and above, on top of the tube, the blood plasma. The layer of white cells was distributed in a culture plate of 24 wells by adding in each the same concentration of blood plasma from the same donor, supplemented with 1% antibiotic-antimycotic (Invitrogen). In each well, approximately 1000 cells (PHF) skin from the dermis were further added, obtained as previously described in Example 2. […] After 48 hours of incubation, cells were collected and embedded in paraffin for expression analysis by immunohistochemical techniques (as described in Example 1).
# The expression of TGF molecular markers (anti-TGF 2, SAB4502956) and NF-kB (anti-NF-kB, SAB4501992) using specific antibodies against them were analyzed. All antibodies used were rabbit polyclonal antibodies obtained from Sigma Aldrich and were used at a concentration of 1/1000. All experiments were carried out sixfold.
# [11] = test system: leukocyte cells (mono and polymorphonuclear) in co-culture with cells isolated from primary human tumors; assay: Marker expression (IHC) in leukocytes co-cultured with primary human tumor cells (colon, pancreatic, lung carcinoma, glioma, melanoma); type: cell-based; settings: SP 1 μM + antagonist 1 μM;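 also: tumor cells and leukocytes came from the same patients, co-culture contents were paraffin-embedded for immunohistochemistry with antibodies to TGF-β2 or NF-kB, leukocytes cultured alone served as control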
# Method: To check that the interaction of the human primary tumor cells with cells of the immune/inflammatory (mono and polymorphonuclear leukocytes) cells, stimulates the secretion of substances of importance for survival and tumor progression, cultures were carried out using sets of immune cells/inflammatory (mono and polymorphonuclear leukocytes) with tumor cells obtained directly from primary human tumors of the same patients.
# The same method described in Example 7 and 9 was used to obtain tumor cells from primary human tumors. Similarly cultured immune cells/inflammatory (mono and polymorphonuclear leukocytes) were used as control and secondly, cultured tumor cells isolated from patients in the presence of immune cells/inflammatory (mono and polymorphonuclear leukocytes).
# Then, paraffin blocks were prepared with the contents of each of the groups mentioned previously for expression studies using immunohistochemistry. On this occasion, in order to identify the secretion of substances with importance for the survival and progression of tumor the following markers were analyzed: TGF-β2 (SAB4502956) and NF-kB (SAB4501992) using specific antibodies against them. All antibodies used were rabbit polyclonal antibodies obtained from Sigma Aldrich and were used at a concentration of 1/1000. Immunohistochemical techniques were performed and evaluated as described in previous examples.
# [12] = co-culture with cells isolated from colon carcinoma
# [13] = co-culture with cells isolated from glioma
# [14] = co-culture with cells isolated from lung carcinoma
# [15] = co-culture with cells isolated from melanoma
# [16] = co-culture with cells isolated from pancreatic carcinoma
smiles,measurement,setting,value
C[C@@H](O[C@H]1OCCN(Cc2n[nH]c(=O)[nH]2)[C@H]1c1ccc(F)cc1)c1cc(C(F)(F)F)cc(C(F)(F)F)c1 [Aprepitant],cells expressing MMP-3,[1],0%
same,cells expressing MMP-7,[1],0%
same,cells expressing MMP-9,[1],0%
same,cells expressing MMP-11,[1],0%
same,cells expressing MMP-13,[1],0%
same,cells expressing MMP-14,[1],0%
same,cells expressing SPARC,[1],0%
same,cells expressing TGF-α,[1],0%
same,cells expressing TGF-β1,[1],0%
same,cells expressing TGF-β2,[1],0%
same,cells expressing TGF-β3,[1],0%
same,PHF cells expressing MMP-3,[2],0%
same,PHF cells expressing MMP-7,[2],0%
same,PHF cells expressing MMP-9,[2],0%
same,PHF cells expressing MMP-11,[2],0%
same,PHF cells expressing MMP-13,[2],0%
same,PHF cells expressing MMP-14,[2],0%
same,PHF cells expressing SPARC,[2],0%
same,PHF cells expressing TGF-α,[2],0%
same,PHF cells expressing TGF-β1,[2],0%
same,PHF cells expressing TGF-β2,[2],0%
same,PHF cells expressing TGF-β3,[2],0%
same,cells expressing MMP-3,[3],0%
same,cells expressing MMP-7,[3],0%
same,cells expressing MMP-9,[3],0%
same,cells expressing MMP-11,[3],0%
same,cells expressing MMP-13,[3],0%
same,cells expressing MMP-14,[3],0%
same,cells expressing SPARC,[3],0%
same,cells expressing TGF-α,[3],0%
same,cells expressing TGF-β1,[3],0%
same,cells expressing TGF-β2,[3],0%
same,cells expressing TGF-β3,[3],0%
same,growth of primary tumor cells cultured alone (in words),[4]; ERK modified or unchanged,only inhibits the growth of cells in which said receptor acts through the MAP Kinases pathway
same,proliferation of primary tumor cells co-cultured with macrophages (in words),[4]; irrespective of MAP Kinases pathway integrity,produces a proliferation of inhibition of tumor cells
same,fibroblasts expressing MMP-7,[5],0%
same,fibroblasts expressing MMP-11,[5],0%
same,fibroblasts expressing MMP-14,[5],0%
same,fibroblasts expressing TGF-α,[5],0%
same,fibroblasts expressing TGF-β 1,[5],0%
same,fibroblasts expressing TGF-β 2,[5],0%
same,fibroblasts expressing TGF-β 3,[5],0%
same,growth of primary tumor cells cultured alone (in words),[6],does not inhibit the growth of tumor cells at low dose
same,proliferation of primary tumor cells co-cultured with stromal fibroblasts and immune/inflammatory cells (in words),[6],produces a proliferation of inhibition of tumor cells
same,PHF cells expressing MMP-3,[7],0%
same,PHF cells expressing MMP-7,[7],0%
same,PHF cells expressing MMP-9,[7],0%
same,PHF cells expressing MMP-11,[7],0%
same,PHF cells expressing MMP-13,[7],0%
same,PHF cells expressing MMP-14,[7],0%
same,PHF cells expressing SPARC,[7],0%
same,PHF cells expressing TGF-α,[7],0%
same,PHF cells expressing TGF-β1,[7],0%
same,PHF cells expressing TGF-β2,[7],0%
same,PHF cells expressing TGF-β3,[7],0%
same,PHF cells expressing MMP-3,[8],0%
same,PHF cells expressing MMP-7,[8],0%
same,PHF cells expressing MMP-9,[8],0%
same,PHF cells expressing MMP-11,[8],0%
same,PHF cells expressing MMP-13,[8],0%
same,PHF cells expressing MMP-14,[8],0%
same,PHF cells expressing SPARC,[8],0%
same,PHF cells expressing TGFα,[8],0%
same,PHF cells expressing TGFβ 1,[8],0%
same,PHF cells expressing TGFβ 2,[8],0%
same,PHF cells expressing TGFβ 3,[8],0%
same,PHF cells expressing MMP-3,[9],0%
same,PHF cells expressing MMP-7,[9],0%
same,PHF cells expressing MMP-9,[9],0%
same,PHF cells expressing MMP-13,[9],0%
same,PHF cells expressing MMP-14,[9],0%
same,PHF cells expressing SPARC,[9],0%
same,PHF cells expressing TGF-α,[9],0%
same,PHF cells expressing TGF-β1,[9],0%
same,PHF cells expressing TGF-β2,[9],0%
same,PHF cells expressing TGF-β3,[9],0%
same,PHF cells expressing MMP-11,[10],0%
Cc1cc(F)ccc1[C@H]1CNCCN1C(=O)N(C)[C@H](C)c1cc(C(F)(F)F)cc(C(F)(F)F)c1 [Vestipitant],cells expressing MMP-3,[1],0%
same,cells expressing MMP-7,[1],0%
same,cells expressing MMP-9,[1],0%
same,cells expressing MMP-11,[1],0%
same,cells expressing MMP-13,[1],0%
same,cells expressing MMP-14,[1],0%
same,cells expressing SPARC,[1],0%
same,cells expressing TGF-α,[1],0%
same,cells expressing TGF-β1,[1],0%
same,cells expressing TGF-β2,[1],0%
same,cells expressing TGF-β3,[1],0%
same,PHF cells expressing MMP-3,[2],0%
same,PHF cells expressing MMP-7,[2],0%
same,PHF cells expressing MMP-9,[2],0%
same,PHF cells expressing MMP-11,[2],0%
same,PHF cells expressing MMP-13,[2],0%
same,PHF cells expressing MMP-14,[2],0%
same,PHF cells expressing SPARC,[2],0%
same,PHF cells expressing TGF-α,[2],0%
same,PHF cells expressing TGF-β1,[2],0%
same,PHF cells expressing TGF-β2,[2],0%
same,PHF cells expressing TGF-β3,[2],0%
same,cells expressing MMP-3,[3],0%
same,cells expressing MMP-7,[3],0%
same,cells expressing MMP-9,[3],0%
same,cells expressing MMP-11,[3],0%
same,cells expressing MMP-13,[3],0%
same,cells expressing MMP-14,[3],0%
same,cells expressing SPARC,[3],0%
same,cells expressing TGF-α,[3],0%
same,cells expressing TGF-β1,[3],0%
same,cells expressing TGF-β2,[3],0%
same,cells expressing TGF-β3,[3],0%
same,mononuclear cells expressing NF-kB,mononuclear cells,0%
same,mononuclear cells expressing TGF-β,mononuclear cells,0%
same,fibroblasts expressing MMP-7,[5],0%
same,fibroblasts expressing MMP-11,[5],0%
same,fibroblasts expressing MMP-14,[5],0%
same,fibroblasts expressing TGF-α,[5],0%
same,fibroblasts expressing TGF-β 1,[5],0%
same,fibroblasts expressing TGF-β 2,[5],0%
same,fibroblasts expressing TGF-β 3,[5],0%
same,Percentage of mononuclear leukocytes cells which expressed NF-kB,[11]; [12],0%
same,Percentage of mononuclear leukocytes cells which expressed TGF-β,[11]; [12],0%
same,Percentage of polymorphonuclear leukocytes cells which expressed NF-kB,[11]; [12],0%
same,Percentage of polymorphonuclear leukocytes cells which expressed TGF-β,[11]; [12],0%
same,Percentage of mononuclear leukocytes cells expressing NF-kB,[11]; [13],0%
same,Percentage of mononuclear leukocytes cells expressing TGF-β,[11]; [13],0%
same,Percentage of polymorphonuclear leukocytes cells expressing NF-kB,[11]; [13],0%
same,Percentage of polymorphonuclear leukocytes cells expressing TGF-β,[11]; [13],0%
same,Percentage of mononuclear leukocytes cells which expressed NF-kB,[11]; [14],0%
same,Percentage of mononuclear leukocytes cells which expressed TGF-β,[11]; [14],0%
same,Percentage of polymorphonuclear leukocytes cells which expressed NF-kB,[11]; [14],0%
same,Percentage of polymorphonuclear leukocytes cells which expressed TGF-β,[11]; [14],0%
same,Percentage of mononuclear leukocytes cells which expressed NF-kB,[11]; [15],0%
same,Percentage of mononuclear leukocytes cells which expressed TGF-β,[11]; [15],0%
same,Percentage of polymorphonuclear leukocytes cells which expressed NF-kB,[11]; [15],0%
same,Percentage of polymorphonuclear leukocytes cells which expressed TGF-β,[11]; [15],0%
same,Percentage of mononuclear leukocytes cells which expressed NF-kB,[11]; [16],0%
same,Percentage of mononuclear leukocytes cells which expressed TGF-β,[11]; [16],0%
same,Percentage of polymorphonuclear leukocytes cells which expressed NF-kB,[11]; [16],0%
same,Percentage of polymorphonuclear leukocytes cells which expressed TGF-β,[11]; [16],0%
same,PHF cells expressing MMP-3,[7],0%
same,PHF cells expressing MMP-7,[7],0%
same,PHF cells expressing MMP-9,[7],0%
same,PHF cells expressing MMP-11,[7],0%
same,PHF cells expressing MMP-13,[7],0%
same,PHF cells expressing MMP-14,[7],0%
same,PHF cells expressing SPARC,[7],0%
same,PHF cells expressing TGF-α,[7],0%
same,PHF cells expressing TGF-β1,[7],0%
same,PHF cells expressing TGF-β2,[7],0%
same,PHF cells expressing TGF-β3,[7],0%
same,PHF cells expressing MMP-3,[8],0%
same,PHF cells expressing MMP-7,[8],0%
same,PHF cells expressing MMP-9,[8],0%
same,PHF cells expressing MMP-11,[8],0%
same,PHF cells expressing MMP-13,[8],0%
same,PHF cells expressing MMP-14,[8],0%
same,PHF cells expressing SPARC,[8],0%
same,PHF cells expressing TGFα,[8],0%
same,PHF cells expressing TGFβ 1,[8],0%
same,PHF cells expressing TGFβ 2,[8],0%
same,PHF cells expressing TGFβ 3,[8],0%
same,PHF cells expressing MMP-3,[9],0%
same,PHF cells expressing MMP-7,[9],0%
same,PHF cells expressing MMP-9,[9],0%
same,PHF cells expressing MMP-13,[9],0%
same,PHF cells expressing MMP-14,[9],0%
same,PHF cells expressing SPARC,[9],0%
same,PHF cells expressing TGF-α,[9],0%
same,PHF cells expressing TGF-β1,[9],0%
same,PHF cells expressing TGF-β2,[9],0%
same,PHF cells expressing TGF-β3,[9],0%
same,PHF cells expressing MMP-11,[10],0%
